Assay results as given in patent US12448377B2, “Heterocyclic compound” (Takeda Pharmaceutical Company Limited, priority 2019, dated 2025).

What follows are compounds tested against T1, human orexin type 2 receptor (Homo sapiens, UniProt O43614) (assay: Measurement of orexin type 2 receptor agonist activity (calcium fluorescence, CHO cells forcibly expressing human OX2 receptor)). Conditions: compound at 3 μM, DMSO = 0%, orexin A (human) 10 nM = 100%.
T1 construct: expressed in transfected cells
T1 sequence (O43614 1-444): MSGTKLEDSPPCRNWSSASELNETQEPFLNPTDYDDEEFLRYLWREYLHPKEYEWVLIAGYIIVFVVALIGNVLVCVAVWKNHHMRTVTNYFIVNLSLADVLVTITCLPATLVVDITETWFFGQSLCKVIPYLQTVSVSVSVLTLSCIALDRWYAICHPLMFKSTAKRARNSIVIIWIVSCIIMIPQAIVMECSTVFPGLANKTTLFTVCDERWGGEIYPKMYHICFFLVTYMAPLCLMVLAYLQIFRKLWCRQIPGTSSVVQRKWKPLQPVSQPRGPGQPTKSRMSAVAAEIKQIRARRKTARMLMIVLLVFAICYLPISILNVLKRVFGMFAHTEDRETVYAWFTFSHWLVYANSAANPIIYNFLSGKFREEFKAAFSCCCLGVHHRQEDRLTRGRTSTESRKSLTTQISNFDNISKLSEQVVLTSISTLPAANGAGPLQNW
Type: cell-based
From the text: To obtain a cell clone stably expressing human orexin type 2 receptor, human orexin type 2 receptor cDNA was inserted into pcDNA3.1(+) plasmid vector (Invitrogen), and a plasmid DNA for expression of human orexin type 2 receptor (pcDNA3.1(+)/hOX2R) was cloned. The plasmid DNA was introduced into CHO-K1 cell by an electroporation method, and human orexin type 2 receptor-expressing clonal cells were obtained by limiting dilution method using G418 drug resistance as a selection marker.
CHO cells forcibly expressing human OX2 receptor were seeded in each well of 384 well black transparent bottom plate (BD Falcon) at 10,000 cells/well, and cultured for one day in a 5% CO2 incubator at 37° C. After removal of the medium in the cell plate, assay buffer A containing a calcium indicator (HBSS (Thermo Fisher Scientific), 20 mM HEPES (Thermo Fisher Scientific), 0.1% BSA (Sigma-Aldrich), 2.5 μg/mL Fluo-4 AM (DOJINDO Chemical), 0.08% Pluronic F127 (DOJINDO Chemical), 1.25 mM probenecid (DOJINDO Chemical)) was added thereto at 30 μL/well. The plate was stood for 30 min in a 5% CO2 incubator at 37° C., and further stood at room temperature for 30 min. A test compound prepared by diluting with assay buffer B (HBSS, 20 mM HEPES, 0.1% BSA) was added thereto at 10 μL/well, and the fluorescence value was measured by FDSSμCELL (Hamamatsu Photonics K.K.) every one sec for 1 min, and thereafter every two sec for 1 min 40 sec. The activity (%) of the test compound was calculated assuming that variation in the fluorescence value when DMSO was added instead of the test compound was 0%, and variation in the fluorescence value when orexin A (human) (PEPTIDE INSTITUTE, INC.) was added at the final concentration of 10 nM was 100%.

| SMILES | OX2R agonist activity (3 μM, %) [%] |
| --- | --- |
| Cc1ccc2n(c1=O)C(COC1CCC(C(C)C)CC1)C(NS(=O)(=O)N(C)C)CC2 (racemic) [Example 28, rac-N,N-dimethyl-N′-[(3S,4R)-7-methyl-6-oxo-4-({[(1s,4S)-4-(propan-2-yl)cyclohexyl]oxy}methyl)-1,3,4,6-tetrahydro-2H-quinolizin-3-yl]sulfuric diamide] | 92 |
| Cc1ccc2n(c1=O)C(COC1CCC(c3ccccc3)CC1)C(NS(=O)(=O)N(C)C)CC2 (racemic) [Example 29, rac-N,N-dimethyl-N′-[(3S,4R)-7-methyl-6-oxo-4-({[(1s,4S)-4-phenylcyclohexyl]oxy}methyl)-1,3,4,6-tetrahydro-2H-quinolizin-3-yl]sulfuric diamide] | 83 |
| Cc1ccc2n(c1=O)C(COC1CCC(C(C)(C)C)CC1)C(NS(=O)(=O)N(C)C)CC2 (racemic) [Example 30, rac-N′-[(3S,4R)-4-({[(1s,4S)-4-tert-butylcyclohexyl]oxy}methyl)-7-methyl-6-oxo-1,3,4,6-tetrahydro-2H-quinolizin-3-yl]-N,N-dimethylsulfuric diamide] | 94 |
| Cc1cccc(C2CCC(OCC3C(NS(=O)(=O)N(C)C)CCc4ccc(C)c(=O)n43)CC2)c1 (racemic) [Example 32, rac-N,N-dimethyl-N′-[(3S,4R)-7-methyl-4-({[(1s,4S)-4-(3-methylphenyl)cyclohexyl]oxy}methyl)-6-oxo-1,3,4,6-tetrahydro-2H-quinolizin-3-yl]sulfuric diamide] | 81 |
| Cc1ccc(C2CCC(OCC3C(NS(C)(=O)=O)CCc4ccc(C)c(=O)n43)CC2)cc1 (racemic) [Example 33, rac-N-[(3S,4R)-7-methyl-4-({[(1s,4S)-4-(4-methylphenyl)cyclohexyl]oxy}methyl)-6-oxo-1,3,4,6-tetrahydro-2H-quinolizin-3-yl]methanesulfonamide] | 78 |
| Cc1ccc(C2CCC(OCC3C(NS(=O)(=O)C4CC4)CCc4ccc(C)c(=O)n43)CC2)cc1 (racemic) [Example 36, rac-N-[(3S,4R)-7-methyl-4-({[(1s,4S)-4-(4-methylphenyl)cyclohexyl]oxy}methyl)-6-oxo-1,3,4,6-tetrahydro-2H-quinolizin-3-yl]cyclopropanesulfonamide] | 84 |
| CCS(=O)(=O)NC1CCc2ccc(C)c(=O)n2C1COC1CCC(C(F)(F)F)CC1 (racemic) [Example 38, rac-N-[(3S,4R)-7-methyl-6-oxo-4-({[(1s,4S)-4-(trifluoromethyl)cyclohexyl]oxy}methyl)-1,3,4,6-tetrahydro-2H-quinolizin-3-yl]ethanesulfonamide] | 88 |
| Cc1ccc2n(c1=O)C(COC1CCC(c3ccc(F)cc3)CC1)C(NS(C)(=O)=O)CC2 (racemic) [Example 40, rac-N-[(3S,4R)-4-({[(1s,4S)-4-(4-fluorophenyl)cyclohexyl]oxy}methyl)-7-methyl-6-oxo-1,3,4,6-tetrahydro-2H-quinolizin-3-yl]methanesulfonamide] | 89 |
| Cc1ccc2n(c1=O)C(COC1CCC(c3ccccc3F)CC1)C(NS(=O)(=O)C1CC1)CC2 (racemic) [Example 45, rac-N-[(3S,4R)-4-({[(1s,4S)-4-(2-fluorophenyl)cyclohexyl]oxy}methyl)-7-methyl-6-oxo-1,3,4,6-tetrahydro-2H-quinolizin-3-yl]cyclopropanesulfonamide] | 95 |
| Cc1ccc2n(c1=O)C(COC1CCC(C(F)F)CC1)C(NS(C)(=O)=O)CC2 (racemic) [Example 55, N-[(3SR,4RS)-4-({[4-(difluoromethyl)cyclohexyl]oxy}methyl)-7-methyl-6-oxo-1,3,4,6-tetrahydro-2H-quinolizin-3-yl]methanesulfonamide] | 88 |
| CCC(O)C1CCC(OCC2C(NS(C)(=O)=O)CCc3ccc(C)c(=O)n32)CC1 (racemic) [Example 58, N-[(3SR,4RS)-4-({[4-(1-hydroxypropyl)cyclohexyl]oxy}methyl)-7-methyl-6-oxo-1,3,4,6-tetrahydro-2H-quinolizin-3-yl]methanesulfonamide] | 95 |
| Cc1ccc2n(c1=O)C(COC1CCC(OC(C)C)CC1)C(NS(C)(=O)=O)CC2 (racemic) [Example 61, rac-N-{(3S,4R)-7-methyl-6-oxo-4-[({(1s,4S)-4-[(propan-2-yl)oxy]cyclohexyl}oxy)methyl]-1,3,4,6-tetrahydro-2H-quinolizin-3-yl)methanesulfonamide] | 103 |
| COC(C)(C)C1CCC(OCC2C(NS(C)(=O)=O)CCc3ccc(C)c(=O)n32)CC1 (racemic) [Example 74, rac-N-[(3S,4R)-4-(([(1s,4S)-4-(2-methoxypropan-2-yl)cyclohexyl]oxy)methyl)-7-methyl-6-oxo-1,3,4,6-tetrahydro-2H-quinolizin-3-yl]methanesulfonamide] | 95 |

Further lines, results first:

| OX2R agonist activity (3 μM, %) [%] | SMILES |
| --- | --- |
| 89 | Cc1ccccc1C1CCC(OCC2C(NS(=O)(=O)N(C)C)CCc3ccc(C)c(=O)n32)CC1 (racemic) [Example 31, rac-N,N-dimethyl-N′-[(3S,4R)-7-methyl-4-({[(1s,4S)-4-(2-methylphenyl)cyclohexyl]oxy}methyl)-6-oxo-1,3,4,6-tetrahydro-2H-quinolizin-3-yl]sulfuric diamide] |
| 78 | CCS(=O)(=O)NC1CCc2ccc(C)c(=O)n2C1COC1CCC(c2ccc(C)cc2)CC1 (racemic) [Example 34, rac-N-[(3S,4R)-7-methyl-4-({[(1s,4S)-4-(4-methylphenyl)cyclohexyl]oxy}methyl)-6-oxo-1,3,4,6-tetrahydro-2H-quinolizin-3-yl]ethanesulfonamide] |
| 88 | Cc1ccc(C2CCC(OCC3C(NS(=O)(=O)N(C)C)CCc4ccc(C)c(=O)n43)CC2)cc1 (racemic) [Example 35, rac-N,N-dimethyl-N′-[(3S,4R)-7-methyl-4-({[(1s,4S)-4-(4-methylphenyl)cyclohexyl]oxy}methyl)-6-oxo-1,3,4,6-tetrahydro-2H-quinolizin-3-yl]sulfuric diamide] |
| 94 | Cc1ccc2n(c1=O)C(COC1CCC(C(F)(F)F)CC1)C(NS(C)(=O)=O)CC2 (racemic) [Example 37, rac-N-[(3S,4R)-7-methyl-6-oxo-4-({[(1s,4S)-4-(trifluoromethyl)cyclohexyl]oxy}methyl)-1,3,4,6-tetrahydro-2H-quinolizin-3-yl]methanesulfonamide] |
| 95 | CCC1CCC(OCC2C(NS(C)(=O)=O)CCc3c(C)cc(C)c(=O)n32)CC1 (racemic) [Example 48, rac-N-[(3S,4R)-4-({[(1s,4S)-4-ethylcyclohexyl]oxy}methyl)-7,9-dimethyl-6-oxo-1,3,4,6-tetrahydro-2H-quinolizin-3-yl]methanesulfonamide] |
| 84 | COC(C)C1CCC(OCC2C(NS(C)(=O)=O)CCc3ccc(C)c(=O)n32)CC1 (racemic) [Example 56, N-[(3SR,4RS)-4-({[(1s,4S)-4-(1-methoxyethyl)cyclohexyl]oxy}methyl)-7-methyl-6-oxo-1,3,4,6-tetrahydro-2H-quinolizin-3-yl]methanesulfonamide] |
| 93 | CCOC1CCC(OCC2C(NS(C)(=O)=O)CCc3ccc(C)c(=O)n32)CC1 (racemic) [Example 59, rac-N-[(3S,4R)-4-({[(1s,4S)-4-ethoxycyclohexyl]oxy}methyl)-7-methyl-6-oxo-1,3,4,6-tetrahydro-2H-quinolizin-3-yl]methanesulfonamide] |
| 93 | CCCCCC1CCC(OCC2C(NS(=O)(=O)C3CC3)CCc3ccc(C)c(=O)n32)CC1 (racemic) [Example 76, rac-N-[(3S,4R)-7-methyl-6-oxo-4-({[(1r,4S)-4-pentylcyclohexyl]oxy}methyl)-1,3,4,6-tetrahydro-2H-quinolizin-3-yl]cyclopropanesulfonamide] |
| 99 | CCCCC1CCC(OCC2C(NS(C)(=O)=O)CCc3ccc(C)c(=O)n32)CC1 (racemic) [Example 80, rac-N-[(3S,4R)-4-({[(1r,4S)-4-butylcyclohexyl]oxy}methyl)-7-methyl-6-oxo-1,3,4,6-tetrahydro-2H-quinolizin-3-yl]methanesulfonamide] |
